Laboratory results from ChEMBL document CHEMBL5303304, “EUbOPEN Chemogenomics Library - IncuCyte” (2023).

Assays:
Type in all cases: toxicity, cell-based
[1] = test system: HEK-293T; assay: Incucyte cell viability with HEK293T; settings: human, 10 µM, compound concentration 10 uM
[2] = test system: Fibroblast; assay: Incucyte cell viability with human fibroblast; settings: 10 µM, compound concentration 10 uM
[3] = test system: U2OS; assay: Incucyte cell viability with U2OS; settings: human, 10 µM, compound concentration 10 uM
Also: unitless GR value; below 1 slowed growth and below 0 cell loss.

## Oc1cc2c(cc1O)CN(C(=S)NCCc1ccc(Cl)cc1)CCC2 [CAPSAZEPINE]
[1]; 6 h, replicate number 1
  Growth Rate: -0.22
[1]; 6 h, replicate number 2
  Growth Rate: -0.37
[1]; 12 h, replicate number 1
  Growth Rate: 0.04
[1]; 12 h, replicate number 2
  Growth Rate: 0.11
[1]; 18 h, replicate number 1
  Growth Rate: 0.54
[1]; 18 h, replicate number 2
  Growth Rate: 0.51
[1]; 24 h, replicate number 2
  Growth Rate: 0.55
[2]; 0 h, replicate number 2
  Growth Rate: -0.78
[2]; 6 h, replicate number 2
  Growth Rate: -0.98
[2]; 12 h, replicate number 2
  Growth Rate: -0.04
[2]; 18 h, replicate number 1
  Growth Rate: -0.47
[2]; 18 h, replicate number 2
  Growth Rate: 0.44
[2]; 24 h, replicate number 2
  Growth Rate: 0.57
[3]; 0 h, replicate number 2
  Growth Rate: -0.38
[3]; 6 h, replicate number 2
  Growth Rate: 0.57
[3]; 12 h, replicate number 1
  Growth Rate: 0.86
[3]; 12 h, replicate number 2
  Growth Rate: 0.84
[3]; 18 h, replicate number 1
  Growth Rate: 0.88
[3]; 18 h, replicate number 2
  Growth Rate: 0.75
[3]; 24 h, replicate number 1
  Growth Rate: 0.77
[3]; 24 h, replicate number 2
  Growth Rate: 0.93

## COc1cc(C(C)C)c(Oc2cnc(NC(CO)CO)nc2N)cc1I
[1]; 0 h, replicate number 2
  Growth Rate: 0.85
[1]; 6 h, replicate number 2
  Growth Rate: 0.97
[1]; 12 h, replicate number 2
  Growth Rate: 0.76
[1]; 18 h, replicate number 2
  Growth Rate: 0.82
[1]; 24 h, replicate number 2
  Growth Rate: 0.89
[2]; 0 h, replicate number 2
  Growth Rate: 0.81
[2]; 6 h, replicate number 1
  Growth Rate: -0.93
[2]; 6 h, replicate number 2
  Growth Rate: 0.67
[2]; 12 h, replicate number 2
  Growth Rate: 0.88
[2]; 18 h, replicate number 2
  Growth Rate: 0.94
[2]; 24 h, replicate number 1
  Growth Rate: 1
[3]; 0 h, replicate number 2
  Growth Rate: -0.32
[3]; 6 h, replicate number 1
  Growth Rate: 0.05
[3]; 12 h, replicate number 1
  Growth Rate: 0.93
[3]; 12 h, replicate number 2
  Growth Rate: 1
[3]; 18 h, replicate number 1
  Growth Rate: 0.97
[3]; 24 h, replicate number 1
  Growth Rate: 0.83

## COCCNc1cc(NC(=O)N2CCCc3cc(CN4CCOCC4=O)c(C=O)nc32)ncc1C#N
[1]; 0 h, replicate number 2
  Growth Rate: 0.81
[1]; 6 h, replicate number 1
  Growth Rate: 0.42
[2]; 6 h, replicate number 1
  Growth Rate: 0.86
[2]; 6 h, replicate number 2
  Growth Rate: -1
[2]; 12 h, replicate number 1
  Growth Rate: -1
[2]; 12 h, replicate number 2
  Growth Rate: 0.58
[2]; 18 h, replicate number 1
  Growth Rate: -0.07
[2]; 24 h, replicate number 1
  Growth Rate: 0.7
[2]; 24 h, replicate number 2
  Growth Rate: 0.95
[3]; 0 h, replicate number 1
  Growth Rate: -0.03
[3]; 6 h, replicate number 1
  Growth Rate: 0.95

## O=C(Nc1ccccc1Cl)c1cnc2ccc(C3CCNCC3)cn12.O=C(O)C(=O)O
[1]; 6 h, replicate number 1
  Growth Rate: -0.96
[1]; 12 h, replicate number 1
  Growth Rate: -0.83
[1]; 12 h, replicate number 2
  Growth Rate: -0.61
[1]; 18 h, replicate number 1
  Growth Rate: -0.53
[1]; 18 h, replicate number 2
  Growth Rate: -0.27
[1]; 24 h, replicate number 1
  Growth Rate: -0.28
[1]; 24 h, replicate number 2
  Growth Rate: -0.03
[2]; 6 h, replicate number 2
  Growth Rate: -1
[2]; 12 h, replicate number 2
  Growth Rate: -0.49
[2]; 18 h, replicate number 1
  Growth Rate: -0.51
[2]; 18 h, replicate number 2
  Growth Rate: 0.05
[2]; 24 h, replicate number 1
  Growth Rate: -0.36
[2]; 24 h, replicate number 2
  Growth Rate: 0.33
[3]; 0 h, replicate number 2
  Growth Rate: -1
[3]; 6 h, replicate number 1
  Growth Rate: -0.44
[3]; 6 h, replicate number 2
  Growth Rate: 0.06
[3]; 12 h, replicate number 1
  Growth Rate: 0.46
[3]; 12 h, replicate number 2
  Growth Rate: 0.5
[3]; 18 h, replicate number 1
  Growth Rate: 0.62
[3]; 18 h, replicate number 2
  Growth Rate: 0.61
[3]; 24 h, replicate number 1
  Growth Rate: 0.64
[3]; 24 h, replicate number 2
  Growth Rate: 0.59
